According to US4006133A, “Aminoglycoside antibiotics” (Sankyo Company Limited, priority 1973, dated 1977):
≈ marks a conversion by molar mass, not a printed value. Read-outs that look alike come from different tables or passages of the source.

Key:
Assay type in all cases: cell-based
[1] = test system: Staphylococcus aureus 209 P; assay: Minimum inhibitory concentration; details: read-out: Minimum inhibitory concentration
[2] = test system: Escherichia coli 605; assay: Minimum inhibitory concentration
[3] = test system: Proteus vulgaris 1404; assay: Minimum inhibitory concentration
[4] = test system: Pseudomonas aeruginosa 1016; assay: Minimum inhibitory concentration
[5] = test system: Shigella flexneri 2a; assay: Minimum inhibitory concentration; details: Hurt's infusion agar
[6] = test system: Staphylococcus epidermidis; assay: Minimum inhibitory concentration; details: read-out: Minimum inhibitory concentration
[7] = test system: Staphylococcus aureus 163; assay: Minimum inhibitory concentration
[8] = test system: Proteus rettgeri 1601; assay: Minimum inhibitory concentration
[9] = test system: Bacillus anthracis; assay: microbe, parasite or virus in culture; details: read-out: Minimum inhibitory concentration
[10] = test system: Escherichia coli 704; assay: Minimum inhibitory concentration
[11] = test system: Staphylococcus aureus 109; assay: Minimum inhibitory concentration
[12] = test system: Salmonella enteritidis; assay: Minimum inhibitory concentration; details: Salmonella enterica, read-out: Minimum inhibitory concentration
[13] = test system: Escherichia coli NIHJ; assay: Minimum inhibitory concentration; details: read-out: Minimum inhibitory concentration
[14] = test system: Proteus morganii 1512; assay: Minimum inhibitory concentration
[15] = test system: Proteus vulgaris 1416; assay: Minimum inhibitory concentration
[16] = test system: Klebsiella 813; assay: Minimum inhibitory concentration
[17] = test system: Staphylococcus aureus 126; assay: Minimum inhibitory concentration
[18] = test system: Pseudomonas aeruginosa Scr.; assay: Minimum inhibitory concentration; details: read-out: Minimum inhibitory concentration
[19] = test system: Pseudomonas aeruginosa 1100; assay: Minimum inhibitory concentration
[20] = test system: Salmonella typhi-murium; assay: Minimum inhibitory concentration; details: read-out: Minimum inhibitory concentration
[21] = test system: Staphylococcus aureus 167; assay: Minimum inhibitory concentration
[22] = test system: Bacillus subtilis PCI-219; assay: Minimum inhibitory concentration
[23] = test system: Pseudomonas aeruginosa 1055; assay: Minimum inhibitory concentration
[24] = test system: Proteus rettgeri 1602; assay: Minimum inhibitory concentration
[25] = test system: Shigella sonnei; assay: Minimum inhibitory concentration; details: Hurt's infusion agar
[26] = test system: Escherichia coli 665; assay: Minimum inhibitory concentration
[27] = test system: Escherichia coli 620; assay: Minimum inhibitory concentration
[28] = test system: Proteus morganii 1501; assay: Minimum inhibitory concentration
[29] = test system: Proteus mirabilis 1312; assay: Minimum inhibitory concentration
[30] = test system: Pseudomonas aeruginosa 1080; assay: Minimum inhibitory concentration
[31] = test system: Proteus mirabilis 1306; assay: Minimum inhibitory concentration
[32] = test system: Pseudomonas schuylkilliensis; assay: Minimum inhibitory concentration; details: read-out: Minimum inhibitory concentration
[33] = test system: Klebsiella 806; assay: Minimum inhibitory concentration
[34] = test system: butirosin-resistant as well as butirosin-sensitive strains; assay: Antibacterial activity, butirosin-resistant and butirosin-sensitive strains

## NCC[C@H](O)C(=O)N[C@@H]1C[C@H](N)[C@@H](O[C@H]2O[C@H](CN)[C@@H](O)[C@H](O)[C@H]2N)[C@H](O[C@@H]2O[C@H](CO)[C@H](O)[C@H]2O)[C@H]1O [BA, butirosin A, reference compound]
[1]; Staphylococcus aureus, 209P
  MIC: 1.5 µg/mL (≈ 2.7 µM)
[2]; Escherichia coli, 605, read-out: Minimum inhibitory concentration
  MIC: > 200 µg/mL
[3]; Proteus vulgaris, 1404, read-out: Minimum inhibitory concentration
  MIC: 25 µg/mL (≈ 45 µM)
[4]; Pseudomonas aeruginosa, 1016, read-out: Minimum inhibitory concentration
  MIC: > 200 µg/mL
[5]
  MIC: 6.2 µg/mL (≈ 11.2 µM)
[6]
  MIC: 0.4 µg/mL (≈ 0.72 µM)
[7]; Staphylococcus aureus, 163, read-out: Minimum inhibitory concentration
  MIC: > 200 µg/mL
[8]; Providencia rettgeri, 1601, read-out: Minimum inhibitory concentration
  MIC: 6.2 µg/mL (≈ 11.2 µM)
[9]
  MIC: 0.8 µg/mL (≈ 1.44 µM)
[10]; Escherichia coli, 704, read-out: Minimum inhibitory concentration
  MIC: 12.5 µg/mL (≈ 22.5 µM)
[11]; Staphylococcus aureus, 109, read-out: Minimum inhibitory concentration
  MIC: > 200 µg/mL
[12]; ENTERITIDIS
  MIC: 12.5 µg/mL (≈ 22.5 µM)
[13]; Escherichia coli
  MIC: 3.1 µg/mL (≈ 5.58 µM)
[14]; Morganella morganii, 1512, read-out: Minimum inhibitory concentration
  MIC: 25 µg/mL (≈ 45 µM)
[15]; Proteus vulgaris, 1416, read-out: Minimum inhibitory concentration
  MIC: 100 µg/mL (≈ 180 µM)
[16]; Klebsiella, 813, read-out: Minimum inhibitory concentration
  MIC: 50 µg/mL (≈ 90 µM)
[17]; Staphylococcus aureus, 126, read-out: Minimum inhibitory concentration
  MIC: 6.5 µg/mL (≈ 11.7 µM)
[18]; Pseudomonas aeruginosa
  MIC: 12.5 µg/mL (≈ 22.5 µM)
[19]; Pseudomonas aeruginosa, 1100, read-out: Minimum inhibitory concentration
  MIC: > 200 µg/mL
[20]; Salmonella typhi-murium, Hurt's infusion agar
  MIC: 12.5 µg/mL (≈ 22.5 µM)
[21]; Staphylococcus aureus, 167, read-out: Minimum inhibitory concentration
  MIC: 200 µg/mL (≈ 360 µM)
[22]; Bacillus subtilis, PCI219, read-out: Minimum inhibitory concentration
  MIC: 0.4 µg/mL (≈ 0.72 µM)
[23]; Pseudomonas aeruginosa, 1055, read-out: Minimum inhibitory concentration
  MIC: > 200 µg/mL
[24]; Providencia rettgeri, 1602, read-out: Minimum inhibitory concentration
  MIC: > 200 µg/mL
[25]
  MIC: 6.2 µg/mL (≈ 11.2 µM)
[26]; Escherichia coli, 665, read-out: Minimum inhibitory concentration
  MIC: > 200 µg/mL
[27]; Escherichia coli, 620, read-out: Minimum inhibitory concentration
  MIC: > 200 µg/mL
[28]; Morganella morganii, 1501, read-out: Minimum inhibitory concentration
  MIC: 3.1 µg/mL (≈ 5.58 µM)
[29]; Proteus mirabilis, 1312, read-out: Minimum inhibitory concentration
  MIC: 100 µg/mL (≈ 180 µM)
[30]; Pseudomonas aeruginosa, 1080, read-out: Minimum inhibitory concentration
  MIC: > 200 µg/mL
[31]; Proteus mirabilis, 1306, read-out: Minimum inhibitory concentration
  MIC: 50 µg/mL (≈ 90 µM)
[32]; Pseudomonas
  MIC: 25 µg/mL (≈ 45 µM)
[33]; Klebsiella, 806, read-out: Minimum inhibitory concentration
  MIC: 3.1 µg/mL (≈ 5.58 µM)

## NCC[C@H](O)C(=O)N[C@@H]1C[C@H](N)[C@@H](O[C@H]2O[C@H](CN)CC[C@H]2N)[C@H](O[C@@H]2O[C@H](CN)[C@H](O)[C@H]2O)[C@H]1O [ATBA, 5"-amino-3',4',5"-trideoxybutirosin A]
[1]; Staphylococcus aureus 209 P, Hurt's infusion agar
  MIC: 0.2 µg/mL (≈ 0.383 µM)
[2]; Escherichia coli 605, Hurt's infusion agar, read-out: Minimum inhibitory concentration
  MIC: 25 µg/mL (≈ 47.8 µM)
[3]; Proteus vulgaris 1404, Hurt's infusion agar, read-out: Minimum inhibitory concentration
  MIC: 6.2 µg/mL (≈ 11.9 µM)
[4]; Pseudomonas aeruginosa 1016, Hurt's infusion agar, read-out: Minimum inhibitory concentration
  MIC: 3.1 µg/mL (≈ 5.93 µM)
[5]
  MIC: 3.1 µg/mL (≈ 5.93 µM)
[34]
  antibacterial activity (in words): extremely active
[6]; Hurt's infusion agar
  MIC: 1.5 µg/mL (≈ 2.87 µM)
[7]; Staphylococcus aureus 163, Hurt's infusion agar, read-out: Minimum inhibitory concentration
  MIC: 25 µg/mL (≈ 47.8 µM)
[8]; Providencia rettgeri, Proteus rettgeri 1601, Hurt's infusion agar, read-out: Minimum inhibitory concentration
  MIC: 1.5 µg/mL (≈ 2.87 µM)
[9]
  MIC: 0.1 µg/mL (≈ 0.191 µM)
[10]; Escherichia coli 704, Hurt's infusion agar, read-out: Minimum inhibitory concentration
  MIC: 6.2 µg/mL (≈ 11.9 µM)
[11]; Staphylococcus aureus 109, Hurt's infusion agar, read-out: Minimum inhibitory concentration
  MIC: 3.1 µg/mL (≈ 5.93 µM)
[12]; Salmonella enteritidis, Hurt's infusion agar
  MIC: 6.2 µg/mL (≈ 11.9 µM)
[13]; Escherichia coli NIHJ, Hurt's infusion agar
  MIC: 3.1 µg/mL (≈ 5.93 µM)
[14]; Morganella morganii, Proteus morganii 1512, Hurt's infusion agar, read-out: Minimum inhibitory concentration
  MIC: 3.1 µg/mL (≈ 5.93 µM)
[15]; Proteus vulgaris 1416, Hurt's infusion agar, read-out: Minimum inhibitory concentration
  MIC: 50 µg/mL (≈ 95.7 µM)
[16]; Klebsiella 813, Hurt's infusion agar, read-out: Minimum inhibitory concentration
  MIC: 25 µg/mL (≈ 47.8 µM)
[17]; Staphylococcus aureus 126, Hurt's infusion agar, read-out: Minimum inhibitory concentration
  MIC: 1.5 µg/mL (≈ 2.87 µM)
[18]; Pseudomonas aeruginosa Scr., Hurt's infusion agar
  MIC: 1.5 µg/mL (≈ 2.87 µM)
[19]; Pseudomonas aeruginosa 1100, Hurt's infusion agar, read-out: Minimum inhibitory concentration
  MIC: 25 µg/mL (≈ 47.8 µM)
[20]
  MIC: 6.2 µg/mL (≈ 11.9 µM)
[21]; Staphylococcus aureus 167, Hurt's infusion agar, read-out: Minimum inhibitory concentration
  MIC: 0.1 µg/mL (≈ 0.191 µM)
[22]; PCI219, Bacillus subtilis PCI-219, Hurt's infusion agar, read-out: Minimum inhibitory concentration
  MIC: 0.1 µg/mL (≈ 0.191 µM)
[23]; Pseudomonas aeruginosa 1055, Hurt's infusion agar, read-out: Minimum inhibitory concentration
  MIC: 6.2 µg/mL (≈ 11.9 µM)
[24]; Providencia rettgeri, Proteus rettgeri 1602, Hurt's infusion agar, read-out: Minimum inhibitory concentration
  MIC: 12.5 µg/mL (≈ 23.9 µM)
[25]
  MIC: 3.1 µg/mL (≈ 5.93 µM)
[26]; Escherichia coli 665, Hurt's infusion agar, read-out: Minimum inhibitory concentration
  MIC: 12.5 µg/mL (≈ 23.9 µM)
[27]; Escherichia coli 620, Hurt's infusion agar, read-out: Minimum inhibitory concentration
  MIC: 12.5 µg/mL (≈ 23.9 µM)
[28]; Morganella morganii, Proteus morganii 1501, Hurt's infusion agar, read-out: Minimum inhibitory concentration
  MIC: 1.5 µg/mL (≈ 2.87 µM)
[29]; Proteus mirabilis 1312, Hurt's infusion agar, read-out: Minimum inhibitory concentration
  MIC: 50 µg/mL (≈ 95.7 µM)
[30]; Pseudomonas aeruginosa 1080, Hurt's infusion agar, read-out: Minimum inhibitory concentration
  MIC: 100 µg/mL (≈ 191 µM)
[31]; Proteus mirabilis 1306, Hurt's infusion agar, read-out: Minimum inhibitory concentration
  MIC: 25 µg/mL (≈ 47.8 µM)
[32]; Pseudomonas schuylkilliensis, Hurt's infusion agar
  MIC: 6.2 µg/mL (≈ 11.9 µM)
[33]; Klebsiella 806, Hurt's infusion agar, read-out: Minimum inhibitory concentration
  MIC: 6.2 µg/mL (≈ 11.9 µM)
